Like-named read-outs stand apart in the source and are kept apart here.
Key:
Assay type in all cases: cell-based
[1] = target: GluN1/GluN2A glutamate receptors (human GRIN1/GRIN2A) expressed in HEK293 cells (Homo sapiens (Human), UniProt Q05586+Q12879); test: Whole-cell patch clamp of mammalian cells (Ionworks Barracuda), positive allosteric modulation, GluN1/GluN2A; details: for Emax: read-out: GluN2A PCA EMax (%)
Procedure, shortened: (§1)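 Ionworks Barracuda perforated-patch recordings, holding −70 mV, −40 mV during application; CsCl/CsF intracellular pH 7.2, HB-PS extracellular pH 7.4 with 5 mM CaCl2. 5 min pre-application of test article alone, then co-application with EC20 L-glutamate plus 30 μM glycine; potentiation read as peak current amplitude.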

[2] = target: GluN2B glutamate receptors expressed in mammalian cells (Homo sapiens (Human), UniProt Q05586+Q13224); test: Whole-cell patch clamp of mammalian cells (Ionworks Barracuda), positive allosteric modulation, GluN2B; details: for Emax: read-out: GluN2B PCA EMax (%)
Procedure, shortened: as §1

[3] = target: glutamate-activated channels of the GRIN1/2A subtype stably transfected in HEK 293 cells (Homo sapiens (Human), UniProt Q05586+Q12879); test: Automated patch-clamp system (QPatch HTX), percent potentiation at 1 μM; details: HEK293, 1 μM test compound, 300 μM NMDA with 8 μM glycine, HEK 293 GRIN1/2A, read-out: GluN2A PCA % potentiation at 1 μM
Procedure, shortened: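 Tetracycline-induced HEK 293 cells stably expressing human GRIN1/2A were whole-cell recorded on QPatch HTX in Mg-free bath solution at pH 7.4. Compound at 1.0 μM (0.1% DMSO) was co-applied with submaximal 300 μM NMDA plus 8 μM glycine, and percent potentiation was recorded.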

[4] = peak current amplitude, co-application with EC20 L-glutamate and 30 μM glycine, HEK293
[5] = peak current amplitude, co-application with EC20 L-glutamate and 30 μM glycine, read-out: GluN2B PCA EC50
[6] = peak current amplitude, co-application with EC20 L-glutamate and 30 μM glycine
[7] = peak current amplitude, co-application with EC20 L-glutamate and 30 μM glycine, HEK293, read-out: GluN2A PCA EC50

Chain of glutamate-activated channels of the GRIN1/2A subtype stably transfected in HEK 293 cells (Q12879 whole entry, looked up, other chains not shown): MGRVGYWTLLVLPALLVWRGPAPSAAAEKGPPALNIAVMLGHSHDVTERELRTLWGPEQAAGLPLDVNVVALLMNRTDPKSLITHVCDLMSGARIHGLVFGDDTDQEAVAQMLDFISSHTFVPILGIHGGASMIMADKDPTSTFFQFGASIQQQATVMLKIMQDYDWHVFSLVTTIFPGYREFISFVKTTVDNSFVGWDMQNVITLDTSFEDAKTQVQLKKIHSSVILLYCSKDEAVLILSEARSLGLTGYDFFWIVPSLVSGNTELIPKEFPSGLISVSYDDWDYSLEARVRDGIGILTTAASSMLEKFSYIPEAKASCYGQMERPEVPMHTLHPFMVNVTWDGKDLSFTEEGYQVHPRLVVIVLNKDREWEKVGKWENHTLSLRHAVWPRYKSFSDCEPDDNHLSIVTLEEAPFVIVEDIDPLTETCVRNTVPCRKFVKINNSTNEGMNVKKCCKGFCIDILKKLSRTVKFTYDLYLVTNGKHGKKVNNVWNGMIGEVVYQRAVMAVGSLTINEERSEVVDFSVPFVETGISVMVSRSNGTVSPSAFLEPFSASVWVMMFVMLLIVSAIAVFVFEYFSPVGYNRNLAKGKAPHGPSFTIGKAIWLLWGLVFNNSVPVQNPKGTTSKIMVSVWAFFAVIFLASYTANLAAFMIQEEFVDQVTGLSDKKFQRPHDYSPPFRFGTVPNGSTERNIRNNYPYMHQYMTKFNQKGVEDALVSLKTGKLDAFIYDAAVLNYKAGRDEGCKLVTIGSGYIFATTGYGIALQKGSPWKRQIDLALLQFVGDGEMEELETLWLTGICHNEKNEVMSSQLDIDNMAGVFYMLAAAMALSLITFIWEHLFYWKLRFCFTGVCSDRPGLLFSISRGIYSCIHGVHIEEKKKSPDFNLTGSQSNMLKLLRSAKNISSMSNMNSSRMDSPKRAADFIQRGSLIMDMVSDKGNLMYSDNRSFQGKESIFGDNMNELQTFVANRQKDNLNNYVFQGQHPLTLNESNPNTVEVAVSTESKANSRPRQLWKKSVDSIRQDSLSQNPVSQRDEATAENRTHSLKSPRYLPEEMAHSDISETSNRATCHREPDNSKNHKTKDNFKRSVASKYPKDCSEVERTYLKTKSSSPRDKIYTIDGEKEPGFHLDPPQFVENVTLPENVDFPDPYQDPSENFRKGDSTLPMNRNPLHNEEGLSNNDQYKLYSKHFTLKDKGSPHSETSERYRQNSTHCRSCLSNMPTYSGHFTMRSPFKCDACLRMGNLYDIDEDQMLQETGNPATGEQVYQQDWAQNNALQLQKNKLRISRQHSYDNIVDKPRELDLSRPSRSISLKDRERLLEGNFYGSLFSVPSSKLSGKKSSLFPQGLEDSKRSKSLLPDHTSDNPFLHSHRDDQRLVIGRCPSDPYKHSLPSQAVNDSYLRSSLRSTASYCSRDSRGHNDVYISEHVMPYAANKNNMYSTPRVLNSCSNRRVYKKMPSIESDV
Chain of GluN1/GluN2A glutamate receptors (human GRIN1/GRIN2A) expressed in HEK293 cells (Q12879 whole entry, looked up, other chains not shown): as above
Chain of GluN2B glutamate receptors expressed in mammalian cells (Q13224 27-1484, other chains not shown): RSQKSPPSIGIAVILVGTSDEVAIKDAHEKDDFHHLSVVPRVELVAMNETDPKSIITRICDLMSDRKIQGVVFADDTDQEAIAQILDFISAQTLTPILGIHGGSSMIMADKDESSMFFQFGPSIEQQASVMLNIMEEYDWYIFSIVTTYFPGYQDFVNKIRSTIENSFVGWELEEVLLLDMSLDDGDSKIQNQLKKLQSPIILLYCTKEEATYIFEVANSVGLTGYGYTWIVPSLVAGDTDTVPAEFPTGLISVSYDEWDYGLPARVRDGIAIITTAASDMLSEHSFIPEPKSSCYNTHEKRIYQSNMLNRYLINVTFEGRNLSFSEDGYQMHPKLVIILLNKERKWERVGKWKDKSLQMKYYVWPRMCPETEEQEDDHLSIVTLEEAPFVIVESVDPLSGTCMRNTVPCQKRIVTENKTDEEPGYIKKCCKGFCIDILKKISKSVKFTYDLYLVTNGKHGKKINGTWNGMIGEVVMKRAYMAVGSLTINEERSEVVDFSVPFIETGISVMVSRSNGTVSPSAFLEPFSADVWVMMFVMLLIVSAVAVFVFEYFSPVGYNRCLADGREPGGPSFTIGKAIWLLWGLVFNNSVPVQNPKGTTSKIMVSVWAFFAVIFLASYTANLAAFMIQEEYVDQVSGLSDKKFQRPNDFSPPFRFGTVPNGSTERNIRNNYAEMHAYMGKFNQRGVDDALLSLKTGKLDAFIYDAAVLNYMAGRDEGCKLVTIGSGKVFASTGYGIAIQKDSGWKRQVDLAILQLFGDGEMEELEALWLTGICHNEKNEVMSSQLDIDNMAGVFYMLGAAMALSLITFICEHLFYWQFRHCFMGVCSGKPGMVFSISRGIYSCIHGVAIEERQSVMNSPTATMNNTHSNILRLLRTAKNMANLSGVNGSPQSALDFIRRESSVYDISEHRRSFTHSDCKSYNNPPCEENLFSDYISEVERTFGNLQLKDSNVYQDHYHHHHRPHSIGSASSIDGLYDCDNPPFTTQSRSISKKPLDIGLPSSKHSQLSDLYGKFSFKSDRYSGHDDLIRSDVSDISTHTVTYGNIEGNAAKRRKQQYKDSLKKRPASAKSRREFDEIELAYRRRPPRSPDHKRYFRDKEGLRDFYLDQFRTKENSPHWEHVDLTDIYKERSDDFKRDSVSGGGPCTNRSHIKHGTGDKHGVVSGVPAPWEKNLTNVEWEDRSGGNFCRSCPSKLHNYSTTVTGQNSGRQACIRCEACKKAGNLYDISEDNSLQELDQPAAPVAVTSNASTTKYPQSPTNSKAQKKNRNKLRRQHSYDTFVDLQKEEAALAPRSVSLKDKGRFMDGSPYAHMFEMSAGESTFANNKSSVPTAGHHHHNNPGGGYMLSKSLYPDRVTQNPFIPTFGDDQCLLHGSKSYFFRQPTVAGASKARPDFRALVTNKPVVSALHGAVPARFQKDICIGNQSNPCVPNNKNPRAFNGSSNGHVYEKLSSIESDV

CCC[C@H](O)[C@@H](C)[C@H]1CC[C@H]2[C@@H]3CC=C4C[C@](O)(CC)CC[C@]4(C)[C@H]3CC[C@]12C [Compound 72, (3S,8S,9S,10R,13S,14S,17R)-3-ethyl-17-((2S,3S)-3-hydroxyhexan-2-yl)-10,13-dimethyl-2,3,4,7,8,9,10,11,12,13,14,15,16,17-tetradecahydro-1H-cyclopenta[a]phenanthren-3-ol]
EC50 [1]: > 1000 nM | Emax [1, 4]: < 100% | EC50 [2, 5]: > 1000 nM | Emax [2, 6]: < 100% | activation at 1 µM [3]: -40 to -10%

CC[C@]1(O)CC[C@@]2(C)[C@@H](CC[C@@H]3[C@@H]2CC[C@]2(C)[C@@H]([C@H](C)[C@H](O)CC4CCCC4)CC[C@@H]32)C1 [Compound 84, (3S,5S,8R,9S,10S,13S,14S,17R)-17-((2S,3R)-4-cyclopentyl-3-hydroxybutan-2-yl)-3-ethyl-10,13-dimethylhexadecahydro-1H-cyclopenta[a]phenanthren-3-ol]
EC50 [1]: > 1000 nM | Emax [1, 4]: < 100% | EC50 [2, 5]: > 1000 nM | Emax [2, 6]: < 100% | activation at 1 µM [3]: -10 to 10%

CC[C@]1(O)CC[C@@]2(C)[C@H](CC[C@@H]3[C@@H]2CC[C@]2(C)[C@@H]([C@H](C)[C@H](O)CC4CCC(C)(C)CC4)CC[C@@H]32)C1 [Compound 87, (3S,5R,8R,9S,10S,13S,14S,17R)-17-((2S,3R)-4-(4,4-dimethylcyclohexyl)-3-hydroxybutan-2-yl)-3-ethyl-10,13-dimethylhexadecahydro-1H-cyclopenta[a]phenanthren-3-ol]
EC50 [1, 7]: > 1000 nM | Emax [1, 4]: < 100% | EC50 [2]: > 1000 nM | Emax [2]: < 100% | activation at 1 µM [3]: -10 to 10%

CC[C@]1(O)CC[C@@]2(C)[C@H](CC[C@@H]3[C@@H]2CC[C@]2(C)[C@@H]([C@H](C)[C@@H](O)CC4CCCC4)CC[C@@H]32)C1 [Compound 94, (3S,5R,8R,9S,10S,13S,14S,17R)-17-((2S,3S)-4-cyclopentyl-3-hydroxybutan-2-yl)-3-ethyl-10,13-dimethylhexadecahydro-1H-cyclopenta[a]phenanthren-3-ol]
EC50 [1]: > 1000 nM | Emax [1, 4]: < 100% | EC50 [2, 5]: > 1000 nM | Emax [2, 6]: < 100% | activation at 1 µM [3]: -40 to -10%

CC[C@]1(O)CC[C@@]2(C)[C@H](CC[C@@H]3[C@@H]2CC[C@]2(C)[C@@H]([C@H](C)[C@H](O)CCC(C)C)CC[C@@H]32)C1 [Compound 96, (3S,5R,8R,9S,10S,13S,14S,17R)-3-ethyl-17-((2S,3R)-3-hydroxy-6-methylheptan-2-yl)-10,13-dimethylhexadecahydro-1H-cyclopenta[a]phenanthren-3-ol]
EC50 [1, 7]: 100 to 1000 nM | Emax [1, 4]: < 100% | EC50 [2]: > 1000 nM | Emax [2]: < 100% | activation at 1 µM [3]: -10 to 10%

CC[C@]1(O)CC[C@@]2(C)[C@@H](CC[C@@H]3[C@@H]2CC[C@]2(C)[C@@H]([C@H](C)[C@@H](O)CC4CCCC4)CC[C@@H]32)C1 [Compound 98, (3S,5S,8R,9S,10S,13S,14S,17R)-17-((2S,3S)-4-cyclopentyl-3-hydroxybutan-2-yl)-3-ethyl-10,13-dimethylhexadecahydro-1H-cyclopenta[a]phenanthren-3-ol]
EC50 [1]: > 1000 nM | Emax [1, 4]: < 100% | EC50 [2, 5]: > 1000 nM | Emax [2, 6]: < 100% | activation at 1 µM [3]: -40 to -10%

CC[C@]1(O)CC[C@@]2(C)C(=CC[C@H]3[C@@H]4CC[C@H]([C@H](C)[C@@H](O)CC5CCCC5)[C@@]4(C)CC[C@@H]32)C1 [Compound 100, (3S,8S,9S,10R,13S,14S,17R)-17-((2S,3S)-4-cyclopentyl-3-hydroxybutan-2-yl)-3-ethyl-10,13-dimethyl-2,3,4,7,8,9,10,11,12,13,14,15,16,17-tetradecahydro-1H-cyclopenta[a]phenanthren-3-ol]
EC50 [1]: > 1000 nM | Emax [1, 4]: < 100% | EC50 [2, 5]: > 1000 nM | Emax [2, 6]: < 100% | activation at 1 µM [3]: -40 to -10%

— patent publication US11613556B2, “Oxysterols and methods of use thereof” (Sage Therapeutics, Inc., priority 2016, dated 2023)
